In patent publication US10472358B2, “1H-pyrrolo[2,3-c]pyridin-7(6H)-ones and pyrazolo[3,4-c]pyridin-7(6H)-ones as inhibitors of BET proteins” (Incyte Corporation, priority 2014, dated 2019):

Test system: KMS.12.BM cells
Assay: KMS.12.BM cell viability assay (Cell Titer-GLO, ATP quantitation)
Type: cell-based
Conditions: KMS-12-BM, 72 h; human myeloma cells, 3 days, concentration required for 50% cell death
Protocol: Example B1: KMS.12.BM Cell Viability Assay
KMS.12.BM cell line (human myeloma) was purchased from JCRB (Osaka, Japan) and maintained in RPMI with 10% FBS culture medium. To measure the cytotoxic activity of the compounds through ATP quantitation, the KMS.12.BM cells are plated in the RPMI culture medium at 5000 cells/well/per 100 μL into a 96-well polystyrene clear black tissue culture plate (Greiner-bio-one through VWR, NJ), in the presence or absence of a concentration range of test compounds. After 3 days, […] Cell Titer-GLO Luminescent (Promega, Madison, Wis.) cell culture agent is added to each well for 10 minutes at room temperature to stabilize the luminescent signal. This determines the number of viable cells in culture based on quantitation of the ATP present, which signals the presence of metabolically active cells. Luminescence is measured with the Top Count 384 (Packard Bioscience through Perkin Elmer, Boston, Mass.). Compound inhibition is determined relative to cells cultured with no drug and the IC50 is reported as the compound concentration required for 50% cell death.

SMILES | IC50
CNC(=O)CN1C(=O)C(C(C)C)Oc2c(-c3cn(C)c(=O)c4[nH]ccc34)cc(OC)cc21 (stereo not drawn) [Example 12, 2-[2-isopropyl-6-methoxy-8-(6-methyl-7-oxo-6,7-dihydro-1H-pyrrolo[2,3-c]pyridin-4-yl)-3-oxo-2,3-dihydro-4H-1,4-benzoxazin-4-yl]-N-methylacetamide] | ≤ 1000 nM
COc1cc(-c2cn(C)c(=O)c3[nH]ccc23)c2c(c1)N(CC(N)=O)C(=O)C(C(C)C)O2 (stereo not drawn) [Example 13, 2-[2-isopropyl-6-methoxy-8-(6-methyl-7-oxo-6,7-dihydro-1H-pyrrolo[2,3-c]pyridin-4-yl)-3-oxo-2,3-dihydro-4H-1,4-benzoxazin-4-yl]acetamide] | ≤ 1000 nM
COc1cc(-c2cn(C)c(=O)c3[nH]ccc23)c2c(c1)N(CC(=O)N1CCN(C)CC1)C(=O)C(C(C)C)O2 (stereo not drawn) [Example 14, 2-isopropyl-6-methoxy-8-(6-methyl-7-oxo-6,7-dihydro-1H-pyrrolo[2,3-c]pyridin-4-yl)-4-[2-(4-methylpiperazin-1-yl)-2-oxoethyl]-2H-1,4-benzoxazin-3(4H)-one] | ≤ 1000 nM
COc1cc(-c2cn(C)c(=O)c3[nH]ccc23)c2c(c1)N(Cc1ccncc1)C(=O)C(C(C)C)O2 (stereo not drawn) [Example 15, 2-isopropyl-6-methoxy-8-(6-methyl-7-oxo-6,7-dihydro-1H-pyrrolo[2,3-c]pyridin-4-yl)-4-(pyridin-4-ylmethyl)-2H-1,4-benzoxazin-3(4H)-one] | ≤ 1000 nM
COc1cc(-c2cn(C)c(=O)c3[nH]ccc23)c2c(c1)N(C(C)C)C(=O)C(C(C)C)O2 (stereo not drawn) [Example 16, 2,4-diisopropyl-6-methoxy-8-(6-methyl-7-oxo-6,7-dihydro-1H-pyrrolo[2,3-c]pyridin-4-yl)-2H-1,4-benzoxazin-3(4H)-one] | ≤ 1000 nM
CC(C)C1Oc2c(cc(C#N)cc2-c2cn(C)c(=O)c3[nH]ccc23)NC1=O (stereo not drawn) [Example 17, 2-isopropyl-8-(6-methyl-7-oxo-6,7-dihydro-1H-pyrrolo[2,3-c]pyridin-4-yl)-3-oxo-3,4-dihydro-2H-1,4-benzoxazine-6-carbonitrile] | ≤ 1000 nM
CC(C)C1Oc2c(-c3cn(C)c(=O)c4[nH]ccc34)cc(C#N)cc2N(C)C1=O (stereo not drawn) [Example 18, 2-isopropyl-4-methyl-8-(6-methyl-7-oxo-6,7-dihydro-1H-pyrrolo[2,3-c]pyridin-4-yl)-3-oxo-3,4-dihydro-2H-1,4-benzoxazine-6-carbonitrile] | ≤ 1000 nM
CC(C)C1Oc2c(-c3cn(C)c(=O)c4[nH]ccc34)cc(C(N)=O)cc2N(C)C1=O (stereo not drawn) [Example 19, 2-isopropyl-4-methyl-8-(6-methyl-7-oxo-6,7-dihydro-1H-pyrrolo[2,3-c]pyridin-4-yl)-3-oxo-3,4-dihydro-2H-1,4-benzoxazine-6-carboxamide] | ≤ 1000 nM
CNC(=O)c1cc2c(c(-c3cn(C)c(=O)c4[nH]ccc34)c1)OC(C(C)C)C(=O)N2 (stereo not drawn) [Example 20, 2-isopropyl-N-methyl-8-(6-methyl-7-oxo-6,7-dihydro-1H-pyrrolo[2,3-c]pyridin-4-yl)-3-oxo-3,4-dihydro-2H-1,4-benzoxazine-6-carboxamide] | ≤ 1000 nM
CC(C)C1Oc2c(cc([N+](=O)[O-])cc2-c2cn(C)c(=O)c3[nH]ccc23)NC1=O (stereo not drawn) [Example 21, 2-isopropyl-8-(6-methyl-7-oxo-6,7-dihydro-1H-pyrrolo[2,3-c]pyridin-4-yl)-6-nitro-2H-1,4-benzoxazin-3(4H)-one] | ≤ 1000 nM
COc1cc(-c2cn(C)c(=O)c3[nH]ccc23)c2c(c1)N(C)CC(C(C)C)O2 (stereo not drawn) [Example 22, 4-(2-isopropyl-6-methoxy-4-methyl-3,4-dihydro-2H-1,4-benzoxazin-8-yl)-6-methyl-1,6-dihydro-7H-pyrrolo[2,3-c]pyridin-7-one] | 1000 to 10000 nM
COc1cc2c(c(-c3cn(C)c(=O)c4[nH]ccc34)c1)OC(C1CC1)C(=O)N2 (stereo not drawn) [Example 23, 2-cyclopropyl-6-methoxy-8-(6-methyl-7-oxo-6,7-dihydro-1H-pyrrolo[2,3-c]pyridin-4-yl)-2H-1,4-benzoxazin-3(4H)-one] | 1000 to 10000 nM
COc1cc2c(c(-c3cn(C)c(=O)c4[nH]ccc34)c1)OC(c1ccccc1)C(=O)N2 (stereo not drawn) [Example 24, 6-methoxy-8-(6-methyl-7-oxo-6,7-dihydro-1H-pyrrolo[2,3-c]pyridin-4-yl)-2-phenyl-2H-1,4-benzoxazin-3(4H)-one] | ≤ 1000 nM
COc1cc2c(c(-c3cn(C)c(=O)c4[nH]ccc34)c1)OC(c1ccc(F)cc1Cl)C(=O)N2 (stereo not drawn) [Example 25, 2-(2-chloro-4-fluorophenyl)-6-methoxy-8-(6-methyl-7-oxo-6,7-dihydro-1H-pyrrolo[2,3-c]pyridin-4-yl)-2H-1,4-benzoxazin-3(4H)-one] | ≤ 1000 nM
COc1cc2c(c(-c3cn(C)c(=O)c4[nH]ncc34)c1)OC(C(C)C)C(=O)N2 (stereo not drawn) [Example 26, 2-isopropyl-6-methoxy-8-(6-methyl-7-oxo-6,7-dihydro-1H-pyrazolo[3,4-c]pyridin-4-yl)-2H-1,4-benzoxazin-3(4H)-one] | ≤ 1000 nM
COc1cc2c(c(-c3cn(C)c(=O)c4[nH]ccc34)c1)OC(C)(C)C(=O)N2 [Example 27, 6-methoxy-2,2-dimethyl-8-(6-methyl-7-oxo-6,7-dihydro-1H-pyrrolo[2,3-c]pyridin-4-yl)-2H-1,4-benzoxazin-3(4H)-one] | ≤ 1000 nM
CC(C)C1Oc2c(cc(-c3cnn(C)c3)cc2-c2cn(C)c(=O)c3[nH]ccc23)NC1=O (stereo not drawn) [Example 28, 2-isopropyl-8-(6-methyl-7-oxo-6,7-dihydro-1H-pyrrolo[2,3-c]pyridin-4-yl)-6-(1-methyl-1H-pyrazol-4-yl)-2H-1,4-benzoxazin-3(4H)-one] | ≤ 1000 nM
COc1cc2c(c(-c3cn(C)c(=O)c4[nH]ncc34)c1)OC(C)(C)C(=O)N2 [Example 29, 6-methoxy-2,2-dimethyl-8-(6-methyl-7-oxo-6,7-dihydro-1H-pyrazolo[3,4-c]pyridin-4-yl)-2H-1,4-benzoxazin-3(4H)-one] | ≤ 1000 nM
Cn1cc(-c2cccc3c2OC2(CC2)C(=O)N3)c2cc[nH]c2c1=O [Example 30, 8-(6-methyl-7-oxo-6,7-dihydro-1H-pyrrolo[2,3-c]pyridin-4-yl)spiro[1,4-benzoxazine-2,1′-cyclopropan]-3(4H)-one] | ≤ 1000 nM
Cn1cc(-c2cccc3c2OC(C)(C)C(=O)N3)c2cc[nH]c2c1=O [Example 31, 2,2-dimethyl-8-(6-methyl-7-oxo-6,7-dihydro-1H-pyrrolo[2,3-c]pyridin-4-yl)-2H-1,4-benzoxazin-3(4H)-one] | ≤ 1000 nM
Cn1cc(-c2cccc3c2NC(C)(C)C(=O)N3)c2cc[nH]c2c1=O [Example 32, 3,3-dimethyl-5-(6-methyl-7-oxo-6,7-dihydro-1H-pyrrolo[2,3-c]pyridin-4-yl)-3,4-dihydroquinoxalin-2(1H)-one] | ≤ 1000 nM
CC(C)C1Oc2c(cc(C(=O)N3CCOCC3)cc2-c2cn(C)c(=O)c3[nH]ccc23)NC1=O (stereo not drawn) [Example 33, 2-isopropyl-8-(6-methyl-7-oxo-6,7-dihydro-1H-pyrrolo[2,3-c]pyridin-4-yl)-6-(morpholin-4-ylcarbonyl)-2H-1,4-benzoxazin-3(4H)-one] | ≤ 1000 nM
CC(C)C1Oc2c(cc(C(=O)N(C)C)cc2-c2cn(C)c(=O)c3[nH]ccc23)NC1=O (stereo not drawn) [Example 34, 2-isopropyl-N,N-dimethyl-8-(6-methyl-7-oxo-6,7-dihydro-1H-pyrrolo[2,3-c]pyridin-4-yl)-3-oxo-3,4-dihydro-2H-1,4-benzoxazine-6-carboxamide] | ≤ 1000 nM
COc1cc2c(c(-c3cn(C)c(=O)c4[nH]ccc34)c1)OC(C1CCCC1)C(=O)N2 (stereo not drawn) [Example 35, 2-cyclopentyl-6-methoxy-8-(6-methyl-7-oxo-6,7-dihydro-1H-pyrrolo[2,3-c]pyridin-4-yl)-2H-1,4-benzoxazin-3(4H)-one] | ≤ 1000 nM
CC(C)C1Oc2c(cc(CO)cc2-c2cn(C)c(=O)c3[nH]ccc23)NC1=O (stereo not drawn) [Example 36, 6-(hydroxymethyl)-2-isopropyl-8-(6-methyl-7-oxo-6,7-dihydro-1H-pyrrolo[2,3-c]pyridin-4-yl)-2H-1,4-benzoxazin-3(4H)-one] | ≤ 1000 nM
COCc1cc2c(c(-c3cn(C)c(=O)c4[nH]ccc34)c1)OC(C(C)C)C(=O)N2 (stereo not drawn) [Example 37, 2-isopropyl-6-(methoxymethyl)-8-(6-methyl-7-oxo-6,7-dihydro-1H-pyrrolo[2,3-c]pyridin-4-yl)-2H-1,4-benzoxazin-3(4H)-one] | ≤ 1000 nM
CC(=O)NCc1cc2c(c(-c3cn(C)c(=O)c4[nH]ccc34)c1)OC(C(C)C)C(=O)N2 (stereo not drawn) [Example 40, N-{[2-isopropyl-8-(6-methyl-7-oxo-6,7-dihydro-1H-pyrrolo[2,3-c]pyridin-4-yl)-3-oxo-3,4-dihydro-2H-1,4-benzoxazin-6-yl]methyl}acetamide] | ≤ 1000 nM
CC(C)C1Oc2c(cc(C(N)=O)cc2-c2cn(C)c(=O)c3[nH]ccc23)NC1=O (stereo not drawn) [Example 41, 2-isopropyl-8-(6-methyl-7-oxo-6,7-dihydro-1H-pyrrolo[2,3-c]pyridin-4-yl)-3-oxo-3,4-dihydro-2H-1,4-benzoxazine-6-carboxamide] | ≤ 1000 nM
COc1cc2c(c(-c3cn(C)c(=O)c4[nH]ncc34)c1)OC(C1CCCC1)C(=O)N2 (stereo not drawn) [Example 42, 2-Cyclopentyl-6-methoxy-8-(6-methyl-7-oxo-6,7-dihydro-1H-pyrazolo[3,4-c]pyridin-4-yl)-2H-1,4-benzoxazin-3(4H)-one] | ≤ 1000 nM
CC(C)C1Oc2c(cc(S(C)(=O)=O)cc2-c2cn(C)c(=O)c3[nH]ccc23)NC1=O (stereo not drawn) [Example 44, 2-isopropyl-8-(6-methyl-7-oxo-6,7-dihydro-1H-pyrrolo[2,3-c]pyridin-4-yl)-6-(methylsulfonyl)-2H-1,4-benzoxazin-3(4H)-one] | ≤ 1000 nM
